Measured values reported in US10890591B2, “Methods and dose packs for monitoring medication adherence” (Synapse Biosciences, LLC, priority 2016, dated 2021).

What was measured:
clinical [1] = conditions: human, in vivo
From the text: (§1) All other markers were obtained from commercial sources. Urine and saliva were collected prior to each day's dosing of marker confirming the presence or absence of markers before the experiment started. […] The presence of all 7 markers at day 8 would confirm that all markers were ingested in the previous 7 day one week period.
(§2) Healthy volunteers with no recent exposure to the markers who were not currently taking prescribed medications, OTC medications or vitamins and supplements were chosen. Exposure to the markers more than one month before starting the experiment was allowed and no dietary restrictions were required. Subjects were given a 7 day blister pack with markers sequenced in the order above. Subjects verbally confirmed they understood the urine and saliva collection procedures. Instructions printed on the marker blister pack instructed subjects to collect urine and saliva each morning before they took the daily dose of marker. They were also instructed to take the daily dose of marker close to the same time each day.

clinical [2] = conditions: human, in vivo; remark: listed apart in the source
From the text: as §1, §2

## CNC(=C[N+](=O)[O-])NCCSCc1ccc(CN(C)C)o1 [Ranitidine]
Clinical [1]
  concentration at 1 day: 0 ng/mL
  concentration at 2 day: 16.8 ng/mL
  concentration at 3 day: 1.56 ng/mL
  concentration at 4 day: 0.562 ng/mL
  concentration at 5 day: 0.366 ng/mL
  concentration at 6 day: 0.176 ng/mL
  concentration at 7 day: 0.0757 ng/mL
  concentration at 8 day: 0.048 ng/mL
Clinical [2]; 1 day
  Subject C, Urine Results: 0 ng/m
  Subject D, Urine Results: 0 ng/m
Clinical [2]; 2 day
  Subject C, Urine Results: 4930 ng/m
  Subject D, Urine Results: 4910 ng/m
Clinical [2]; 3 day
  Subject C, Urine Results: 492 ng/m
  Subject D, Urine Results: 300 ng/m
Clinical [2]; 4 day
  Subject C, Urine Results: 68.3 ng/m
  Subject D, Urine Results: 51.5 ng/m
Clinical [2]; 5 day
  Subject C, Urine Results: 41.9 ng/m
  Subject D, Urine Results: 39.4 ng/m
Clinical [2]; 6 day
  Subject C, Urine Results: 39.6 ng/m
  Subject D, Urine Results: 22.6 ng/m
Clinical [2]; 7 day
  Subject C, Urine Results: 25.2 ng/m
  Subject D, Urine Results: 14 ng/m
Clinical [2]; 8 day
  Subject C, Urine Results: 23.5 ng/m
  Subject D, Urine Results: 12.1 ng/m
Clinical [2]; Average of Urine Samples
  concentration at 1 day: 0 ng/mL
  concentration at 2 day: 3720 ng/mL
  concentration at 3 day: 351 ng/mL
  concentration at 4 day: 56.5 ng/mL
  concentration at 5 day: 40.7 ng/mL
  concentration at 6 day: 34.3 ng/mL
  concentration at 7 day: 13.9 ng/mL
  concentration at 8 day: 10.4 ng/mL
Clinical [2]; Subject A, Urine Results
  concentration at 1 day: 0 ng/mL
  concentration at 2 day: 801 ng/mL
  concentration at 3 day: 156 ng/mL
  concentration at 4 day: 63.4 ng/mL
  concentration at 5 day: 61.8 ng/mL
  concentration at 6 day: 58.5 ng/mL
  concentration at 7 day: 11.2 ng/mL
  concentration at 8 day: 1.16 ng/mL
Clinical [2]; Subject B, Urine Results
  concentration at 1 day: 0 ng/mL
  concentration at 3 day: 456 ng/mL

## Cc1cc2nc3c(=O)[nH]c(=O)nc-3n(C[C@H](O)[C@H](O)[C@H](O)CO)c2cc1C [Riboflavin]
Clinical [1]
  concentration at 1 day: 85.5 ng/mL
  concentration at 2 day: 92 ng/mL
  concentration at 3 day: 58.2 ng/mL
  concentration at 4 day: 45.5 ng/mL
  concentration at 5 day: 37.3 ng/mL
  concentration at 6 day: 85.5 ng/mL
  concentration at 7 day: 40.8 ng/mL
  concentration at 8 day: 43.1 ng/mL
Clinical [2]; 1 day
  Subject C, Urine Results: 1210 ng/m
  Subject D, Urine Results: 819 ng/m
Clinical [2]; 2 day
  Subject C, Urine Results: 4940 ng/m
  Subject D, Urine Results: 1290 ng/m
Clinical [2]; 3 day
  Subject C, Urine Results: 3150 ng/m
  Subject D, Urine Results: 5190 ng/m
Clinical [2]; 4 day
  Subject C, Urine Results: 3150 ng/m
  Subject D, Urine Results: 4330 ng/m
Clinical [2]; 5 day
  Subject C, Urine Results: 1230 ng/m
  Subject D, Urine Results: 1730 ng/m
Clinical [2]; 6 day
  Subject C, Urine Results: 1680 ng/m
  Subject D, Urine Results: 2120 ng/m
Clinical [2]; 7 day
  Subject C, Urine Results: 4450 ng/m
  Subject D, Urine Results: 3200 ng/m
Clinical [2]; 8 day
  Subject C, Urine Results: 9920 ng/m
  Subject D, Urine Results: 3310 ng/m
Clinical [2]; Average of Urine Samples
  concentration at 1 day: 2240 ng/mL
  concentration at 2 day: 2490 ng/mL
  concentration at 3 day: 2960 ng/mL
  concentration at 4 day: 5130 ng/mL
  concentration at 5 day: 2110 ng/mL
  concentration at 6 day: 2270 ng/mL
  concentration at 7 day: 3100 ng/mL
  concentration at 8 day: 5710 ng/mL
Clinical [2]; Subject B, Urine Results
  concentration at 3 day: 3040 ng/mL
